# Results published in the kinase profiling compilation of Christmann-Franck et al. (2016).
# Columns and labels:
# Assay in all cases: KINOMEscan competition binding
# Details in all cases: compound 10.0 µM
# MAP2K1 (human) = MAP2K1 (human) (UniProt Q02750)
# STK36 (human) = STK36 (human) (UniProt Q9NRP7)
# [1] = system: KIT (human), P10721 [V559D]
# CHUK (human) = CHUK (human) (UniProt O15111)
# ADCK3 (human) = ADCK3 (human) (UniProt Q8NI60)
# [2] = molecular target: JAK2 JH1 catalytic (human) (UniProt O60674)
# TLK1 (human) = TLK1 (human) (UniProt Q9UKI8)
# PLK3 (human) = PLK3 (human) (UniProt Q9H4B4)
# CLK4 (human) = CLK4 (human) (UniProt Q9HAZ1)
# RIOK3 (human) = RIOK3 (human) (UniProt O14730)
# MAP4K3 (human) = MAP4K3 (human) (UniProt Q8IVH8)
# IKBKE (human) = IKBKE (human) (UniProt Q14164)
# ACVR2A (human) = ACVR2A (human) (UniProt P27037)
# RPS6KA6 KD2 (human) = RPS6KA6 KD2 (human) (UniProt Q9UK32)
# FYN (human) = FYN (human) (UniProt P06241)
# CDK5 (human) = CDK5 (human) (UniProt Q00535)
# PRKD3 (human) = PRKD3 (human) (UniProt O94806)
# RPS6KA5 KD2 (human) = RPS6KA5 KD2 (human) (UniProt O75582)
# MST4 (human) = MST4 (human) (UniProt Q9P289)
# PIM3 (human) = PIM3 (human) (UniProt Q86V86)
# CAMK2B (human) = CAMK2B (human) (UniProt Q13554)
# SGK110 (human) = SGK110 (human) (UniProt P0C264)
# CaMK1 (human) = CaMK1 (human) (UniProt Q14012)
# PLK1 (human) = PLK1 (human) (UniProt P53350)
# BMPR1A (human) = BMPR1A (human) (UniProt P36894)
# EPHB2 (human) = EPHB2 (human) (UniProt P29323)
# TESK1 (human) = TESK1 (human) (UniProt Q15569)
# ERBB2 (human) = ERBB2 (human) (UniProt P04626)
# CHEK2 (human) = CHEK2 (human) (UniProt O96017)
# MARK1 (human) = MARK1 (human) (UniProt Q9P0L2)
# PTK2 (human) = PTK2 (human) (UniProt Q05397)
# CSNK1E (human) = CSNK1E (human) (UniProt P49674)
# PRKCH (human) = PRKCH (human) (UniProt P24723)
# CDC42BPA (human) = CDC42BPA (human) (UniProt Q5VT25)
# PDGFRB (human) = PDGFRB (human) (UniProt P09619)
# MAP2K4 (human) = MAP2K4 (human) (UniProt P45985)
# PAK7 (human) = PAK7 (human) (UniProt Q9P286)
# TEK (human) = TEK (human) (UniProt Q02763)
# DMPK (human) = DMPK (human) (UniProt Q09013)
# SRPK1 (human) = SRPK1 (human) (UniProt Q96SB4)
# Sequence of MAP2K4 (human) (P45985 whole entry, looked up): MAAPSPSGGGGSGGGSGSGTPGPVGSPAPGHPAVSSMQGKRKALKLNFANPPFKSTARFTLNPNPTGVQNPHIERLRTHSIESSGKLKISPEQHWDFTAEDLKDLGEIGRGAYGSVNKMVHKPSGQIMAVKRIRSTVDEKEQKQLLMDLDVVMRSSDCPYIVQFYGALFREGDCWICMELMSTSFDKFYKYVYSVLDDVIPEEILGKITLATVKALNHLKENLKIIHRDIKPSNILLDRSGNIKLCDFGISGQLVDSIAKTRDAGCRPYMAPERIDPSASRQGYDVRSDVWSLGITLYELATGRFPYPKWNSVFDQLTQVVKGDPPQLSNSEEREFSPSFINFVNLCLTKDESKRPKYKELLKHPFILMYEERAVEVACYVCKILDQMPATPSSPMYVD
# Sequence of BMPR1A (human) (P36894 whole entry, looked up): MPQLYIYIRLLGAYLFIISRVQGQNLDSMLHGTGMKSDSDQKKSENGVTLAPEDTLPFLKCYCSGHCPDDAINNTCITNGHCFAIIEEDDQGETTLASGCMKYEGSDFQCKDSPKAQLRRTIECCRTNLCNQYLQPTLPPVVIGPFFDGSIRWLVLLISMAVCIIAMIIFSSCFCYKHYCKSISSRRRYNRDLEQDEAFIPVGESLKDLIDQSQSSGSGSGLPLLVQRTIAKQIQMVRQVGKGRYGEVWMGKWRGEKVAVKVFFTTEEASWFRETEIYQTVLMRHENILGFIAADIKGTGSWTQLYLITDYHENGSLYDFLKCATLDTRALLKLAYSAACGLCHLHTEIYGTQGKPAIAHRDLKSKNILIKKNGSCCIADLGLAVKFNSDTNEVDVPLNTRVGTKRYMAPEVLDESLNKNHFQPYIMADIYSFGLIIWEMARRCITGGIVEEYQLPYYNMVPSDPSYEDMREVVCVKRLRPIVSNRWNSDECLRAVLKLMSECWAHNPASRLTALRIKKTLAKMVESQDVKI
# Sequence of ERBB2 (human) (P04626 whole entry, looked up): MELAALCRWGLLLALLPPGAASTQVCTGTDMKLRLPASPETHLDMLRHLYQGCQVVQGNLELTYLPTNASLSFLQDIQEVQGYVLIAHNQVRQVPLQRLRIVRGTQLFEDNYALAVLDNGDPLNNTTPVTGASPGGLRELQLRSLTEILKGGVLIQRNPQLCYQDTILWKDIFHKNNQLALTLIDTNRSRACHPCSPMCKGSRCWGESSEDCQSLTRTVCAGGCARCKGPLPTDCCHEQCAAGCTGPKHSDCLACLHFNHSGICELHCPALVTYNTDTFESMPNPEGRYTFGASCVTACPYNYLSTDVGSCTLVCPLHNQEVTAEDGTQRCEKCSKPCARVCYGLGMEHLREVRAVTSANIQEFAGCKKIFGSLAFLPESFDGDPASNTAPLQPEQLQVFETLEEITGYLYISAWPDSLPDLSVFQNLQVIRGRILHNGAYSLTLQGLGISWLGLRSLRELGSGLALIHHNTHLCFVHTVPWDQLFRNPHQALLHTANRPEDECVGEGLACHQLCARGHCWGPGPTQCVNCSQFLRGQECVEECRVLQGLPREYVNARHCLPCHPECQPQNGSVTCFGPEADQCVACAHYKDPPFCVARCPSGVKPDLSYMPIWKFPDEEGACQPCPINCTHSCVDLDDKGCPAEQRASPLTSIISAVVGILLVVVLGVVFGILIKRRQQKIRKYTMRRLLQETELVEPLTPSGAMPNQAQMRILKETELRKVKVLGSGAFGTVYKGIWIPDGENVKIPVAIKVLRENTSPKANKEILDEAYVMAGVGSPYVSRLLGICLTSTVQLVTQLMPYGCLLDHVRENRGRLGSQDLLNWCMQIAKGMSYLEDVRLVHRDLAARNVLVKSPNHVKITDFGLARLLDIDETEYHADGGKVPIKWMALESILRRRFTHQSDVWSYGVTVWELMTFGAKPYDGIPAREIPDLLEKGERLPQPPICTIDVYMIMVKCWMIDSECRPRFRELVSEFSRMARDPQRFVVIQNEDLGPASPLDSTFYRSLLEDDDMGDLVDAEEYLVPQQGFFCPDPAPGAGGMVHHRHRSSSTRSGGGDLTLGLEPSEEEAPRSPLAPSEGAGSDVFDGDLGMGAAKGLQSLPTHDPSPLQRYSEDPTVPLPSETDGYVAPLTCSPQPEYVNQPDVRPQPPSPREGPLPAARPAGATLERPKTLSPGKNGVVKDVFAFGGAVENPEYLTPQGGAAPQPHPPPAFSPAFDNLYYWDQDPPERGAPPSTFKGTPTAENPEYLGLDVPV
# Sequence of CAMK2B (human) (Q13554 whole entry, looked up): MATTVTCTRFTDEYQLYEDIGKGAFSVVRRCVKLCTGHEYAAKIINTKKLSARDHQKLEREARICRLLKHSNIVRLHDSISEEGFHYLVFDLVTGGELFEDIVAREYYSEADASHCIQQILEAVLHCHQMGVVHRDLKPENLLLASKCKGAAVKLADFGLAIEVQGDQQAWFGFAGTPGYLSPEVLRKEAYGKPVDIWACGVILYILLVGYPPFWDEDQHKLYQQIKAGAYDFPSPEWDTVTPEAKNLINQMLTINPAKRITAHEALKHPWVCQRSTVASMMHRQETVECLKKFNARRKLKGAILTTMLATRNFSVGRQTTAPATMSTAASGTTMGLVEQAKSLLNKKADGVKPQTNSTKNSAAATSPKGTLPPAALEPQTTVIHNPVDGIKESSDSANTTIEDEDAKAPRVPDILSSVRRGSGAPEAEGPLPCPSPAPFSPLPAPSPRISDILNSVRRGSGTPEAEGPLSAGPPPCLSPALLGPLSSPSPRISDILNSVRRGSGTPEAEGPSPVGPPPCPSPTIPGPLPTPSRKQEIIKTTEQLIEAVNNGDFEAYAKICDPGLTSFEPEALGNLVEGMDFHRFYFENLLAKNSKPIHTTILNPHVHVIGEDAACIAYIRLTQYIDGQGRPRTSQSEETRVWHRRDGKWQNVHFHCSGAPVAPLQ
# Sequence of JAK2 JH1 catalytic (human) (O60674 whole entry, looked up): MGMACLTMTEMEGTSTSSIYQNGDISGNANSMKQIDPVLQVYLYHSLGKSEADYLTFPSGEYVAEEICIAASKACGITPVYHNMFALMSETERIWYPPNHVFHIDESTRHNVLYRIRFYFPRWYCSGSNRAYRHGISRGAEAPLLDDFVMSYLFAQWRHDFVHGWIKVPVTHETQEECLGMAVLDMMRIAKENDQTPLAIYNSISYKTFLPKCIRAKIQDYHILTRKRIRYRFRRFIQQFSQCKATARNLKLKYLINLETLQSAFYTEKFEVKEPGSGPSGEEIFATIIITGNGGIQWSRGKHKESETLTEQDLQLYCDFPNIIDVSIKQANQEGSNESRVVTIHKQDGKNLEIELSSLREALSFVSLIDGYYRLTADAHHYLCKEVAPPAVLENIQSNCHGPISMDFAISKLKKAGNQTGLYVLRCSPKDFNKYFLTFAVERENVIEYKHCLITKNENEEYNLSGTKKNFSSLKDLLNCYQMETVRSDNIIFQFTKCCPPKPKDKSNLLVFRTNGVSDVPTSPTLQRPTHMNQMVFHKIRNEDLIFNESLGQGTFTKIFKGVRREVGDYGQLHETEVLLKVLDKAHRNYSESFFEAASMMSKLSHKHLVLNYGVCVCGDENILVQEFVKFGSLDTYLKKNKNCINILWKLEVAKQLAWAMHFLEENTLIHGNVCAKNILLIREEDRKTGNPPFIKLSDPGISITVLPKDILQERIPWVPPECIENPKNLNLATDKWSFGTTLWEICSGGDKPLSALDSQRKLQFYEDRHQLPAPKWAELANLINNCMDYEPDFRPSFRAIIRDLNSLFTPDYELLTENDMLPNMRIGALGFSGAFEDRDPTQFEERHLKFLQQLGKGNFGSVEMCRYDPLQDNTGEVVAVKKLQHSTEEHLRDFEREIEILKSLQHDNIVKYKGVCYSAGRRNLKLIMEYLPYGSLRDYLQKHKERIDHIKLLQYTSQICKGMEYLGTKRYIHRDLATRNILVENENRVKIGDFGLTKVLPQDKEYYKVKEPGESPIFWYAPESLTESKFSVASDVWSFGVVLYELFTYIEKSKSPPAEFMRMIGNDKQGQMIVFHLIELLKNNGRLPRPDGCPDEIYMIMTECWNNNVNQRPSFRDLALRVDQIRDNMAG
# Sequence of CaMK1 (human) (Q14012 whole entry, looked up): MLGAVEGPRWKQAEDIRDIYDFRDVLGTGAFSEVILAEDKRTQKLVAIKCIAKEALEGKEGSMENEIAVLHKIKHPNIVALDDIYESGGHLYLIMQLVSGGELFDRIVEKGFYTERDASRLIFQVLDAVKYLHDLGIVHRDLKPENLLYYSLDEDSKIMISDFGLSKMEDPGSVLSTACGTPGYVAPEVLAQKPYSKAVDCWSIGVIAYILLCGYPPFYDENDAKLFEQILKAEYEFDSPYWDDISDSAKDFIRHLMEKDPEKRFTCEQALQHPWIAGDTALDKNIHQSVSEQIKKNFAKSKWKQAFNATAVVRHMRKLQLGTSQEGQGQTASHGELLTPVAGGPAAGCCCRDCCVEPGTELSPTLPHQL
# Sequence of SGK110 (human) (P0C264 whole entry, looked up): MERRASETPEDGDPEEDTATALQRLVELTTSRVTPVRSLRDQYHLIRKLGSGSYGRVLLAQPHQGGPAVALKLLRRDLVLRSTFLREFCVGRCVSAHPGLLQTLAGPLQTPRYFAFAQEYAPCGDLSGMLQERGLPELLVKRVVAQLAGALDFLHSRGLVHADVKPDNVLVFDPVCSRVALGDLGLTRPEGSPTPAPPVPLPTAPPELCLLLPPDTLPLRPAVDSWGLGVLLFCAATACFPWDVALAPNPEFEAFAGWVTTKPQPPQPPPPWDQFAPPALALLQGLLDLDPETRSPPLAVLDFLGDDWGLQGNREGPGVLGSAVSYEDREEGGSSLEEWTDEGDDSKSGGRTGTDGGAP
Structure (SMILES),"kinase still bound, per cent of control (MAP2K1 (human)) [%]","kinase still bound, per cent of control (STK36 (human)) [%]","kinase still bound, per cent of control [1] [%]","kinase still bound, per cent of control (CHUK (human)) [%]","kinase still bound, per cent of control (ADCK3 (human)) [%]","kinase still bound, per cent of control [2] [%]","kinase still bound, per cent of control (TLK1 (human)) [%]","kinase still bound, per cent of control (PLK3 (human)) [%]","kinase still bound, per cent of control (CLK4 (human)) [%]","kinase still bound, per cent of control (RIOK3 (human)) [%]","kinase still bound, per cent of control (MAP4K3 (human)) [%]","kinase still bound, per cent of control (IKBKE (human)) [%]","kinase still bound, per cent of control (ACVR2A (human)) [%]","kinase still bound, per cent of control (RPS6KA6 KD2 (human)) [%]","kinase still bound, per cent of control (FYN (human)) [%]","kinase still bound, per cent of control (CDK5 (human)) [%]","kinase still bound, per cent of control (PRKD3 (human)) [%]","kinase still bound, per cent of control (RPS6KA5 KD2 (human)) [%]","kinase still bound, per cent of control (MST4 (human)) [%]","kinase still bound, per cent of control (PIM3 (human)) [%]",further results
Cc1ccc(NC(=O)c2cccc(C(C)(C)C#N)c2)cc1Nc1ccc2ncn(C)c(=O)c2c1,100,88,0.05,72,100,100,100,100,100,100,94,100,100,3.5,3.6,100,88,100,100,98,"kinase still bound, per cent of control (CAMK2B (human)): 100%; kinase still bound, per cent of control (SGK110 (human)): 100%; kinase still bound, per cent of control (CaMK1 (human)): 87%; kinase still bound, per cent of control (PLK1 (human)): 100%; kinase still bound, per cent of control (BMPR1A (human)): 100%; kinase still bound, per cent of control (EPHB2 (human)): 0%; kinase still bound, per cent of control (TESK1 (human)): 100%; kinase still bound, per cent of control (ERBB2 (human)): 72%; kinase still bound, per cent of control (CHEK2 (human)): 92%; kinase still bound, per cent of control (MARK1 (human)): 100%; kinase still bound, per cent of control (PTK2 (human)): 100%; kinase still bound, per cent of control (CSNK1E (human)): 100%; kinase still bound, per cent of control (PRKCH (human)): 100%; kinase still bound, per cent of control (CDC42BPA (human)): 100%; kinase still bound, per cent of control (PDGFRB (human)): 0%; kinase still bound, per cent of control (MAP2K4 (human)): 100%; kinase still bound, per cent of control (PAK7 (human)): 100%; kinase still bound, per cent of control (TEK (human)): 62%; kinase still bound, per cent of control (DMPK (human)): 90%; kinase still bound, per cent of control (SRPK1 (human)): 100%"
COc1cc(C(=O)NC2CCN(C)CC2)ccc1Nc1ncc2c(n1)N(C1CCCC1)CCC(=O)N2C(C)C,100,100,100,100,100,100,100,100,100,100,100,100,100,100,100,100,100,100,100,100,"kinase still bound, per cent of control (CAMK2B (human)): 100%; kinase still bound, per cent of control (SGK110 (human)): 100%; kinase still bound, per cent of control (CaMK1 (human)): 100%; kinase still bound, per cent of control (PLK1 (human)): 17%; kinase still bound, per cent of control (BMPR1A (human)): 100%; kinase still bound, per cent of control (EPHB2 (human)): 100%; kinase still bound, per cent of control (TESK1 (human)): 100%; kinase still bound, per cent of control (ERBB2 (human)): 100%; kinase still bound, per cent of control (CHEK2 (human)): 100%; kinase still bound, per cent of control (MARK1 (human)): 100%; kinase still bound, per cent of control (PTK2 (human)): 100%; kinase still bound, per cent of control (CSNK1E (human)): 100%; kinase still bound, per cent of control (PRKCH (human)): 100%; kinase still bound, per cent of control (CDC42BPA (human)): 100%; kinase still bound, per cent of control (PDGFRB (human)): 100%; kinase still bound, per cent of control (MAP2K4 (human)): 100%; kinase still bound, per cent of control (PAK7 (human)): 100%; kinase still bound, per cent of control (TEK (human)): 100%; kinase still bound, per cent of control (DMPK (human)): 100%; kinase still bound, per cent of control (SRPK1 (human)): 0%"
